Laboratory results reported in patent US9084770B2, “Modulation of insulin like growth factor I receptor expression in cancer” (Antisense Therapeutics, Ltd., priority 2008, dated 2015).
Marks after values point to notes of the source that are not given here.

How the values were obtained:
PC3 cells [1] = experiment: PC3 cell viability, crystal violet assay; format: cell-based, human; conditions: FBS media, achieved by 100 nM, three days after treatment
Description: (§1) Established methods were used to test the activity of IGF-IR antisense oligonucleotide on LNCaP and PC-3 cell growth (crystal violet assay) and apoptosis (FACS). Dose- and sequence-specific suppression of IGF-IR mRNA and protein expression in ATL1101-treated LNCaP and PC3 PC cell lines in vitro were observed by QT-PCR and western blotting. Effects of the IGF-IR antisense oligonucleotide on various putative targets, including IGF-IR and downstream targets were evaluated using western blotting.
Cells were transfected with indicated concentrations of ATL1101, control oligodeoxynucleotides or oligofectamine as in FIGS. 1A(i)-1A(ii). Three days after treatment, cell viability was determined by crystal violet assay. Viable cell density was normalized to that of cells treated with oligofectamine. Points, means of triplicate analysis; bars, SE. *, p<0.05 differs from control oligodeoxynucleotide treatment group. **, p<0.01 differs from control oligodeoxynucleotide treatment group by Student's t test.

LNCaP cells = experiment: LNCaP cell cycle and apoptosis, flow cytometry with propidium iodide; format: cell-based, human; conditions: 100 nM
Description: as §1
The Effect of IGF-IR silencing with IGF-IR antisense oligonucleotide (ATL1101) on LNCaP and PC3 cell apoptosis and cell cycle is shown in FIGS. 4A(i)-(ii), 4B, 4C(i)-(ii), and Table 2. Cells were transfected with indicated concentrations of ATL1101, control oligodeoxynucleotide or oligofectamine as in FIGS. 1A(i)-1B(ii). Two days after treatment, cell cycle analysis was determined by flow cytometry using propidium iodide staining. […] In FIGS. 4C(i)-(ii), LNCaP (FIG. 4C (i)) or PC-3 (FIG. 4C (ii)) cells were transfected with indicated concentration of ATL1101 or control oligodeoxynucleotide (ISIS 306064) for two days. Cells were then cultured in FBS media for one day and in serum-free media for one day. Whole cell lysates (30 μg) were subjected to SDS-PAGE and immunoblotted to assess Cyclin D1, Cyclin E, p-RB, total Rb, and p27 protein levels. Oligo, oligofectamine treated cells only.

PC3 cells [2] = experiment: PC3 viable cells and apoptosis after transfection plus Paclitaxel
Description: PC3 cells cultured in vitro were transfected at concentrations of IGF-IR antisense oligonucleotide (ATL1101) or control oligodeoxynucleotide (ISIS 306064) ranging from 12.5 nM to 50 nM or oligofectamine control once per day on two sequential days. After the 2nd transfection, the PC3 cells were treated with concentrations of between 0.1 to 50 nM Paclitaxel. The number of viable cells remaining were determined 72 hours after Paclitaxel treatment.

LNCaP tumors = experiment: LNCaP xenograft after castration, tumor volume and serum PSA; format: in vivo, mice; conditions: 15 mg/kg i.p. once daily for 7 days and 3 times per week thereafter; vs control oligodeoxynucleotide
Description: One million PC-3 or LNCaP cells were injected subcutaneously in athymic mice. For LNCaP xenografts, when PSA values exceeded 50 ng/ml, mice were castrated and randomly selected for treatment with ATL1101 or control oligodeoxynucleotide (15 mg/kg) injected i.p. once daily for 7 days and 3 times per week thereafter. Blood samples were obtained from the tail vein of the mice once weekly to measure serum PSA by ELISA. For PC-3 xenografts, when tumors reached 100 mm^3, mice were randomly selected and treated with the same protocol as LNCaP.
The effects of IGF-IR antisense oligonucleotide treatment in LNCaP and PC-3 tumors in vivo are show in FIGS. 5A-5C. LNCaP cells were inoculated s.c. and when PSA values exceeded 50 ng/ml, mice were castrated and randomly selected for treatment with ATL1101 or control oligodeoxynucleotide (15 mg/kg) injected i.p. once daily for 7 days and 3 times per week thereafter. Blood samples were obtained from the tail vein of the mice once weekly to measure serum PSA by ELISA. PC-3 cells were inoculated s.c. and when tumors reached 100 mm^3, mice were randomly selected for treatment with the same protocol as LNCaP. Each point represents the mean tumor volume in each group containing 10 mice; bars, SE. * differs from control oligodeoxynucleotide treatment group (p<0.05) by Student's t test.

IGF-IRβ subunit protein = IGF-IRβ subunit protein in PC3 Ptx-R cells; format: cell-based, human; conditions: 10 to 200 nM, compared to oligofectamine transfection reagent
Excerpt: (§2) The PC3 Ptx-R cells retain sensitivity to ATL1101-induced IGF-IR down regulation at the mRNA and protein level as shown in FIGS. 11A-C. […] ATL1101 and the control oligodeoxynucleotide ISIS 306064 had no effect on either of the alternative spliced isoform transcripts of the insulin receptor, IR-A, IR-B or IR-β protein or vinculin protein levels.

Ptx-R PC3 cells = experiment: Ptx-R PC3 viable cells after transfection with or without Paclitaxel; format: cell-based, human
Description: The number of viable PC3 and PtxR PC3 cells was determined 72 hours after the second transfection.
[…] The number of viable cells remaining was determined 72 hours after the second transfection treatment. ATL1101 treatment enhances the Ptx-R sensitivity to Paclitaxel under standard culture conditions. For example, there was approximately 45% cell viability with 100 nM Paclitaxel and 25 nM control oligodeoxynucleotide whereas, only 25 nM Paclitaxel is needed in the presence of 25 nM ATL1101 to produce the same reduction in cell viability.

IGF-IR mRNA [3] = experiment: IGF-IR mRNA in PC3 Ptx-R cells; format: cell-based, human; conditions: 10 to 200 nM, compared to oligofectamine transfection reagent
Excerpt: as §2

IGF-IR mRNA [4] = conditions: other cell lines, dose-dependent and sequence specific; cited from earlier work
IGF-IRB subunit = experiment: IGF-IRB immunoblot in PC3 cells with or without Paclitaxel; format: cell-based, human; conditions: 50 nM, with or without 1 nM Paclitaxel
Excerpt: Vinculin expression is shown as a loading control.

Ki67 = Ki67 immunohistochemistry in psoriatic skin biopsies after topical treatment; format: in vivo; conditions: topically applied
Description: The present inventors assessed proliferation by Ki67 labeling in paraffin wax-embedded, formalin-fixed, 3 mm diameter, full-thickness psoriatic skin biopsies at the conclusion of the treatment phase of topically applied ATL1101. The tissue was analyzed to assess the effect of the antisense treatments on Ki67 expression using immunohistochemical analysis.

cgaaggaaacaatactccga (CGAAGGAAACAATACTCCGA; 2'-MOE modified, pattern not given here) [ISIS 175317, 2′-MOE-modified IGF-IR antisense oligonucleotide, also known as ATL1101]
maximum reduction of cell viability relative to control (PC3 cells [1]): ~60%
% of total cells, G0/G1 (LNCaP cells; CSS condition): 13.3%
% of total cells, G2/M (LNCaP cells; CSS condition): 1.2%
% of total cells, S (LNCaP cells; CSS condition): 1.2%
% of total cells, Sub G0/G1 (LNCaP cells; CSS condition): 84.3%
subG0/G1 + G0/G1:S + G2/M (LNCaP cells; CSS condition): 40.7***
% of total cells, G0/G1 (LNCaP cells; FBS condition): 32.8%
% of total cells, G2/M (LNCaP cells; FBS condition): 2.8%
% of total cells, S (LNCaP cells; FBS condition): 3.4%
subG0/G1 + G0/G1:S + G2/M (LNCaP cells; FBS condition): 15.1**
% of total cells, Sub G0/G1 (LNCaP cells; FBS condition, two days after treatment): 61%
fold higher Paclitaxel concentration (10 nM vs 1 nM) needed with 25 nM mismatch control for similar viability (PC3 cells [2]; 25 nM ATL1101 with 1 nM Paclitaxel): 10 fold
amount of Paclitaxel required to induce tumor cell apoptosis (PC3 cells [2]; in combination with ATL1101): significantly reduced
PSA rise rates after castration (LNCaP tumors): significantly delayed
tumor growth after castration (LNCaP tumors): significantly delayed
IGF-IRβ subunit protein levels (IGF-IRβ subunit protein): specifically reduced
Paclitaxel concentration needed to produce the same reduction in cell viability (approximately 45% viability) (Ptx-R PC3 cells; in the presence of 25 nM ATL1101): 25 nM
sensitivity of viable cell number to ATL1101 (Ptx-R PC3 cells; up to 250 nM, 72 hours after second transfection, standard culture conditions): retain ATL1101 sensitivity
IGF-IR mRNA levels (IGF-IR mRNA [3]): specifically reduced
inhibition of IGF-IR mRNA expression (IGF-IR mRNA [4]): significantly inhibit
IGF-IRB levels (IGF-IRB subunit): specifically reduced
Ki67 by length (mm) and area (mm squared) vs. mismatch control (Ki67): Statistically significant reduction
